Results on one substance are retold here after patent US20220372433A1 (priority 2021, published 2022).

Experiment [1] relates to Lactobacillus plantarum HG-23. As to the kind of experiment: Antibiotic sensitivity test (microdilution method, MIC). It counts as cell-based. As to conditions: cultured for 48 h. As for the experimental part: The antibiotic resistance of HG-23 was detected by a microdilution method. a series of 2-fold dilutions were performed on antibacterial drugs to be tested (Gentamicin, Kanamycin, Tetracycline, Erythromycin, Clindamycin, Chloramphenicol, Amplicilin, with initial concentrations of 1024 ug/ml, 256 ug/ml, 64 ug/ml, 8 ug/ml, 16 ug/ml, 64 ug/ml, 16 ug/ml) for 12 times, then added into corresponding wells of 96-well plates, and then […] diluted test bacterial solutions were added into the corresponding wells. After being cultured for 48 h, the minimum inhibitory concentration (MIC) well of the antibacterial drug, namely the sensitivity of the test strain, was observed.
A general note: Dilution methods test growth across graded concentrations, often in twofold steps.

The subject of the next experiment is Lactobacillus plantarum. Further details: unit not given here. To be noted: regulatory cut-off for Lactobacillus plantarum; cited from earlier work.

For Gentamicin, in experiment [1], the “minimum inhibitory concentration (MIC) of antibiotic against HG-23” value amounted to 8 µg/mL. The “EFSA specified safety value (Lactobacillus plantarum)” value in the experiment on Lactobacillus plantarum was 16.
